Paper PMC4904746 (EXCLI Journal, 2013)
Entries after “also recorded” stand apart in the source; their conditions may differ.

What follows are molecules tested against α-glucosidase from recombinant Saccharomyces cerevisiae (Saccharomyces cerevisiae, UniProt P53341) (assay: α-glucosidase inhibitory activity assay). Conditions: comparison among the fractions and compounds 1-8 isolated from CCF.
Sequence of α-glucosidase from recombinant Saccharomyces cerevisiae (P53341 whole entry): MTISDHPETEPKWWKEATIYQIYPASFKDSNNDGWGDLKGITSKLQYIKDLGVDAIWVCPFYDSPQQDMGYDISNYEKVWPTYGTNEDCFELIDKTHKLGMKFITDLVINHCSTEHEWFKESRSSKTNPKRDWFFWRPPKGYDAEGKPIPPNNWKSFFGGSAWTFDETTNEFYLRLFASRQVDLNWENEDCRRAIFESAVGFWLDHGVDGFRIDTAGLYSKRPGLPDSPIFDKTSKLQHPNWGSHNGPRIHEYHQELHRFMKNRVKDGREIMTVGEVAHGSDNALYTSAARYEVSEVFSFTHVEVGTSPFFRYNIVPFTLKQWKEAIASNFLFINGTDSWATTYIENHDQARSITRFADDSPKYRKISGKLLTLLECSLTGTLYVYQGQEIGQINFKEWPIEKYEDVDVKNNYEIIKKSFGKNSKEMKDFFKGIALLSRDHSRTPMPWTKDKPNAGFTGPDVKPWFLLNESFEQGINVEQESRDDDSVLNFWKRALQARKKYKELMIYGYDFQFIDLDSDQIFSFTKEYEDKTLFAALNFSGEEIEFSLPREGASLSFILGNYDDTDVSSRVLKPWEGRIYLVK
Format: biochemical
`O=c1c(O)c(-c2ccc(O)c(O)c2)oc2cc(O)cc(O)c12` [Compound 6, quercetin] was tested, and the “α-glucosidase inhibitory activity (comparison in words)” value (from here on “α-glucosidase inhibitory activity”) was “higher α-glucosidase inhibitory activity than the flavonoid; also recorded: more significant inhibitory activity against α-glucosidase than other mono-hydroxy flavonoids; also recorded: highest α-glucosidase inhibitory activity”. `O=c1c(O)c(-c2ccc(O)cc2)oc2cc(O[C@@H]3O[C@H](CO)[C@@H](O)[C@H](O)[C@H]3O)cc(O)c12` [Compound 8, kaempferol-7-O-β-D-glucoside] was tested, and the “α-glucosidase inhibitory activity” value was “higher α-glucosidase inhibitory activity than the flavonoid”. With `O=c1c(O)c(-c2ccc(O)cc2)oc2cc(O)cc(O)c12` [Compound 3, kaempferol] the “α-glucosidase inhibitory activity” value was “higher α-glucosidase inhibitory activity than the flavonoid”. With `O=c1c(O[C@@H]2O[C@H](CO)[C@H](O)[C@H](O)[C@H]2O)c(-c2ccc(O)c(O)c2)oc2cc(O)cc(O)c12` [Compound 4, hyperin] the “α-glucosidase inhibitory activity” value was “more significant inhibitory activity against α-glucosidase than other mono-hydroxy flavonoids”.
